Values after ≈ are worked out from the molar mass of the structure shown.

In general, solubility refers to the dissolved amount per volume that the medium holds. Read a low solubility as little dissolved substance.

A short description of one data set: Formulated solubility. It is filed as physicochemical.
A short description of data set [1]: Subacute study of intravenously administered CX-3543 in rats (safety and tolerance). Format: in vivo. How it is done:
This study determines the safety and tolerance of CX-3543 at three dose levels administered intravenously once daily to rats for five consecutive days. Safety parameters will be monitored through observation, clinical pathology, and microscopic histopathology assessments. Selected animals will also undergo blood sample collection for pharmacokinetic/toxicokinetic evaluation.
The study was conducted using three (3) test and one (1) control article groups. The high and low test article groups and the control group consisted of 28 animals each and were used to assess tolerance. The medium test article group consisted of 64 animals of which 28 animals were used to assess tolerance and 36 animals were used to determine the level of test article in the blood at various time points after the first and fifth doses in the PK/TK portion of the study. The control article was the solution (5% dextrose in water; D5W) used to dilute the test article prior to administration and was administered at the same volume as the high dose test article group. The test article dosage levels for this study were 24, 7.6, and 2.4 mg/kg. Test and control articles were administered by intravenous (IV) injection into a tail vein over one minute on five consecutive days.
Blood samples for test article blood level analysis were taken as follows. […]

The next data set concerns p53 (total). In words: p53 (total) ELISA in HCT-116 cells. As to conditions: 24 hr, 1-5 uM. It is filed as cell-based. As to the method:
(§1) The protocol for this assay is described as follows. On Day 1, cells were seeded at 2×10^6 cells/10 cm dish/10 mL medium. On day two, cells were treated as follows: control=0.05% DMSO (5 μl DMSO stock/10 ml medium); 1 μM CX3543 (1 μl Stock (10 mM)/10 ml medium); 2 μM CX3543 (2 μl Stock (10 mM)/10 ml medium); 3 μM CX3543 (3 μl Stock (10 mM)/10 ml medium); 4 μM CX3543 (4 μl Stock (10 mM)/10 ml medium) and 5 μM CX3543 (5 μl Stock (10 mM)/10 ml medium).
(§2) On Day 3, cells were harvested and attached and floating cells were collected. Cells were washed twice with PBS, counted and collected at 4×10^6 cells/sample. The cell pellet was frozen at −80° C. until further use. […]
(§3) Test Procedure. […] After washing, the plate is inverted and tapped dry on absorbance tissue. […]
(§4) Wash wells with 400 μl working wash buffer four times. […] After washing, the plate is inverted and tapped try on absorbance tissue. […] After washing, the plate is inverted and tapped try on absorbance tissue. […] Read the plate at A450 nm by setting chromogen blank (=100 μl TMB+100 μl Stop soln) as blank. Read absorbance within 2 hours of assay completion.
A general note: ELISA stands for enzyme-linked immunosorbent assay.

The subject of data set [2] is phosphorylated p53 [pS15]. In words: Phosphorylated p53 ELISA in HCT-116 cells. It is filed as cell-based. As to conditions: 24 hr, 1-5 uM. How it is done:
as §1, §2, §3, §4

Consider `CN1CCCC1CCNC(=O)c1cn2c3c(c(N4CCC(c5cnccn5)C4)c(F)cc3c1=O)Oc1cc3ccccc3cc1-2` (centres unmarked) [CX-3543], for which the solubility in the data set “Formulated solubility” was approximately 20 mg/mL (≈ 33.1 mM). The tolerance entry in data set [1] (five consecutive daily IV doses, mid- and low-dose levels (7.6 and 2.4 mg/kg)) is listed as “toxicologically well tolerated”. In addition, the mortality result in data set [1] (high dose animals (24 mg/kg), five day course) is on record as “approximately 5%”. Further, the “population of the protein p53 (total)” value with p53 (total) was “enhanced”. In addition, the “population of phosphorylated p53” value in data set [2] is reported as “enhanced”.

Source of the values: US7507727B2, “Substituted quinobenzoxazine analogs and methods of using thereof” (Cylene Pharmaceuticals, Inc., priority 2003, dated 2009).
